Data taken from PubChem BioAssay AID1963864 (Molecular Pharmacology Branch, DTP, NCI, 2024).
pIC50: −log10 of the molar value.

Test system: KRAS PDC multicell spheroid viability
Assay: Anticancer human tumor 521955-158-R6-J3-PDC patient-derived pancreatic carcinoma cell line growth inhibition [KRAS2]
Conditions: for pIC50: curve of first compound; for viability, T/C: stronger effect = lower value
Excerpt: Multicellular complex tumor spheroid response to RAS pathway inhibitors in combination with a targeted agents in patient-derived cell lines with oncogenic KRAS variants from multiple cancer types
A high-throughput screen of multi-cell type tumor spheroids was designed to identify active combinations of targeted small molecules and KRAS pathway inhibitors. Complex spheroids include a stromal component modeled by human endothelial cells (HUVEC) and fibroblasts modeled by human mesenchymal stem cells (MSCs). The concentration ranges selected for each drug and investigational agent were based upon clinically achievable concentrations if the clinical Cmax of the agent was known.
Compounds. The drugs and investigational agents: BI-3406 (NSC825286), BAY-293 (NSC824723), batoprotafib (TNO155; NSC825523), sotorasib (AMG 510; NSC818433), MRTX1257 (NSC819558), elimusertib (BAY 1895344; NSC800525), molibresib (GSK525762; NSC774829), temuterkib (LY3214996; NSC803410), venetoclax (NSC766270), alisertib (NSC759677), olaparib (NSC753686), talazoparib (NSC767125), erdafitinib (NSC781556), ipatasertib (NSC767898), cabozantinib (NSC761068), nintedanib (NSC756659), abemaciclib (NSC768073), docetaxel (NSC628503), trametinib (NSC758246), and sapanisertib (NSC764658) were obtained from the National Cancer Institute (NCI) Developmental Therapeutics Program Chemical Repository. The FDA-approved anticancer drug set is available from the Developmental Therapeutics Program. […] The stock solutions were prepared in dimethyl sulfoxide (DMSO, Sigma-Aldrich, St. Louis, MO, cat. D2650) at 800-fold the tested concentration and stored at -70 degrees C prior to their use. All drugs and investigational agents were tested over a range starting from a high concentration at or near the clinical Cmax and decreasing in half-log increments. If the clinical Cmax for an agent had not been determined, the highest concentration tested was 10 microM.
Cell Culture. All cells were maintained in an incubator at 37 degrees C and 5% CO2 with 95% humidity. The PDC lines were cultured according to standard operating procedures established by the NCI PDMR (https://pdmr.cancer.gov/sops/default.htm). Briefly, all PDCs were thawed and cultured in Matrigel-coated flasks prepared with a working solution of 1X Ham's F-12 nutrient mix, without supplementation (Invitrogen, Waltham, MA, cat. 11765054), 100 U/mL penicillin-streptomycin (Invitrogen, cat. 15140122), and 2.5% Matrigel (Corning Inc., Corning, NY, cat. 354248) for the first three passages. All PDCs were cultured in complete DMEM/F-12 media containing advanced DMEM/F-12 (Invitrogen, cat. 12634028), 4.9% defined fetal bovine serum, heat inactivated (HyClone Laboratories Inc., Logan, UT, cat. SH30070.03HI), 389 ng/mL hydrocortisone (Sigma-Aldrich, cat. H4001), 9.7 ng/mL human EGF recombinant protein (Invitrogen, cat. PHG0313), 23.4 microg/mL adenine (Sigma-Aldrich, cat. A2786), 97.3 U/mL penicillin-streptomycin (Invitrogen, cat. 15140122), 1.9 mM L-glutamine (Invitrogen, cat. 25030081), and 9.7 microM Y-27632 dihydrochloride (Tocris Bioscience, Bristol, United Kingdom, cat. 1254). The PDCs were cultured in complete DMEM/F12 media without 9.7 microM Y-27632 dihydrochloride for at least two passages prior to the screen. The established cell line HOP-62 was cultured in RPMI 1640 medium, HEPES (Invitrogen, cat. 22400105) with 10% defined fetal bovine serum (HyClone Laboratories Inc., cat. SH30070.03) and 2 mM L-glutamine (Invitrogen, cat. 25030081). The pooled donor HUVEC were cultured in endothelial cell growth medium 2 (PromoCell, Heidelberg, Germany, cat. C-22011) and the hMSC were cultured in mesenchymal stem cell growth medium 2 (PromoCell, cat. C-28009). For all experiments, HUVEC and hMSC were used at passages </=5, while the malignant cell lines were used at passages </=15. […]

[1] = second compound 0.1 µM, first compound 0.01 µM
[2] = second compound 0.1 µM, first compound 0.0316 µM
[3] = second compound 0.1 µM, first compound 0.1 µM
[4] = second compound 0.1 µM, first compound 0.316 µM
[5] = second compound 0.1 µM, first compound 1 µM
[6] = second compound 0.1 µM, first compound 3.16 µM
[7] = second compound 0.316 µM, first compound 0.01 µM
[8] = second compound 0.316 µM, first compound 0.0316 µM
[9] = second compound 0.316 µM, first compound 0.1 µM
[10] = second compound 0.316 µM, first compound 0.316 µM
[11] = second compound 0.316 µM, first compound 1 µM
[12] = second compound 0.316 µM, first compound 3.16 µM
[13] = second compound 1 µM, first compound 0.01 µM
[14] = second compound 1 µM, first compound 0.0316 µM
[15] = second compound 1 µM, first compound 0.1 µM
[16] = second compound 1 µM, first compound 0.316 µM
[17] = second compound 1 µM, first compound 1 µM
[18] = second compound 1 µM, first compound 3.16 µM
[19] = second compound 3.16 µM, first compound 0.01 µM
[20] = second compound 3.16 µM, first compound 0.0316 µM
[21] = second compound 3.16 µM, first compound 0.1 µM
[22] = second compound 3.16 µM, first compound 0.316 µM
[23] = second compound 3.16 µM, first compound 1 µM
[24] = second compound 3.16 µM, first compound 3.16 µM
[25] = second compound 10 µM, first compound 0.01 µM
[26] = second compound 10 µM, first compound 0.0316 µM
[27] = second compound 10 µM, first compound 0.1 µM
[28] = second compound 10 µM, first compound 0.316 µM
[29] = second compound 10 µM, first compound 1 µM
[30] = second compound 10 µM, first compound 3.16 µM
[31] = second compound 0.1 µM, first compound 10 µM
[32] = second compound 0.316 µM, first compound 10 µM
[33] = second compound 1 µM, first compound 10 µM
[34] = second compound 3.16 µM, first compound 10 µM
[35] = second compound 10 µM, first compound 10 µM
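Also: drug exposure lasted seven days.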
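For viability, T/C in this document: 100% = DMSO vehicle wells and lower means fewer viable cells.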

| SMILES | pIC50 (second compound 0.1 µM) | pIC50 (second compound 0.316 µM) | pIC50 (second compound 1 µM) | pIC50 (second compound 3.16 µM) | pIC50 (second compound 10 µM) | viability, T/C [2] [%] | viability, T/C [3] [%] | viability, T/C [4] [%] | viability, T/C [5] [%] | viability, T/C [6] [%] | viability, T/C [8] [%] | viability, T/C [9] [%] | viability, T/C [10] [%] | viability, T/C [11] [%] | viability, T/C [14] [%] | viability, T/C [15] [%] | viability, T/C [20] [%] | viability, T/C [21] [%] | viability, T/C [26] [%] | viability, T/C [27] [%] | further results |
| --- | --- | --- | --- | --- | --- | --- | --- | --- | --- | --- | --- | --- | --- | --- | --- | --- | --- | --- | --- | --- | --- |
| CC(=O)OC12COC1CC(O)C1(C)C(=O)C(O)C3=C(C)C(OC(=O)C(O)C(NC(=O)OC(C)(C)C)c4ccccc4)CC(O)(C(OC(=O)c4ccccc4)C21)C3(C)C (stereo not given) + C=CC(=O)N1CCN(c2nc(=O)n(-c3c(C)ccnc3C(C)C)c3nc(-c4c(O)cccc4F)c(F)cc23)C(C)C1 | < 5.50 | < 5.50 | < 5.50 | < 5.50 | < 5.50 | 74.1 | 77.7 | 94.7 | 94.3 | 114 | 82.5 | 74.4 | 77.1 | 88.4 | 87 | 81.4 | 88.1 | 90.3 | 92.2 | 90.1 | viability, T/C [1]: 86.2%; viability, T/C [7]: 86%; viability, T/C [12]: 113%; viability, T/C [13]: 90.6%; viability, T/C [16]: 62.5%; viability, T/C [17]: 65.6%; viability, T/C [18]: 69%; viability, T/C [19]: 97.3%; viability, T/C [22]: 101%; viability, T/C [23]: 98.4%; viability, T/C [24]: 104%; viability, T/C [25]: 98.9%; viability, T/C [28]: 73.2%; viability, T/C [29]: 86.8%; viability, T/C [30]: 76.8% |
| CN(C)C/C=C/C(=O)Nc1cc2c(Nc3ccc(F)c(Cl)c3)ncnc2cc1O[C@H]1CCOC1 + C=CC(=O)N1CCN(c2nc(=O)n(-c3c(C)ccnc3C(C)C)c3nc(-c4c(O)cccc4F)c(F)cc23)C(C)C1 | < 7.00 | < 7.00 | < 7.00 | < 7.00 | < 7.00 | 68.6 | 66.6 |  |  |  | 71.2 | 66.3 |  |  | 67.6 | 69.4 | 69.6 | 69.7 | 58.5 | 65.3 | viability, T/C (second compound 0.1 µM, first compound 0.000316 µM): 101%; viability, T/C (second compound 0.1 µM, first compound 0.001 µM): 92.9%; viability, T/C (second compound 0.1 µM, first compound 0.00316 µM): 85.4%; viability, T/C [1]: 72.8%; viability, T/C (second compound 0.316 µM, first compound 0.000316 µM): 119%; viability, T/C (second compound 0.316 µM, first compound 0.001 µM): 112%; viability, T/C (second compound 0.316 µM, first compound 0.00316 µM): 79.9%; viability, T/C [7]: 81.7%; viability, T/C (second compound 1 µM, first compound 0.000316 µM): 113%; viability, T/C (second compound 1 µM, first compound 0.001 µM): 92.2%; viability, T/C (second compound 1 µM, first compound 0.00316 µM): 102%; viability, T/C [13]: 79.8%; viability, T/C (second compound 3.16 µM, first compound 0.000316 µM): 112%; viability, T/C (second compound 3.16 µM, first compound 0.001 µM): 97%; viability, T/C (second compound 3.16 µM, first compound 0.00316 µM): 83.7%; viability, T/C [19]: 79%; viability, T/C (second compound 10 µM, first compound 0.000316 µM): 73.2%; viability, T/C (second compound 10 µM, first compound 0.001 µM): 109%; viability, T/C (second compound 10 µM, first compound 0.00316 µM): 66.7%; viability, T/C [25]: 62.3% |
| COC(=O)c1ccc2c(C(=Nc3ccc(N(C)C(=O)CN4CCN(C)CC4)cc3)c3ccccc3)c(O)[nH]c2c1 + C=CC(=O)N1CCN(c2nc(=O)n(-c3c(C)ccnc3C(C)C)c3nc(-c4c(O)cccc4F)c(F)cc23)C(C)C1 | 5.33 | 5.40 | 5.50 | 5.42 | 5.42 | 96.2 | 102 | 116 | 119 | 76.8 | 92.8 | 108 | 120 | 128 | 103 | 110 | 108 | 94.6 | 82.5 | 83.3 | viability, T/C [31]: 0.24%; viability, T/C [12]: 61.9%; viability, T/C [32]: 0.9%; viability, T/C [16]: 119%; viability, T/C [17]: 128%; viability, T/C [18]: 49.6%; viability, T/C [33]: 3.61%; viability, T/C [22]: 94.2%; viability, T/C [23]: 123%; viability, T/C [24]: 59.9%; viability, T/C [34]: 1.53%; viability, T/C [28]: 88.9%; viability, T/C [29]: 89%; viability, T/C [30]: 59%; viability, T/C [35]: 0.68% |
| O=C(c1cc(Cc2n[nH]c(=O)c3ccccc23)ccc1F)N1CCN(C(=O)C2CC2)CC1 + C=CC(=O)N1CCN(c2nc(=O)n(-c3c(C)ccnc3C(C)C)c3nc(-c4c(O)cccc4F)c(F)cc23)C(C)C1 | < 5.00 | < 5.00 | < 5.00 | < 5.00 | < 5.00 | 110 | 103 | 113 | 96.1 | 101 | 118 | 118 | 106 | 104 | 118 | 114 | 103 | 105 | 84.4 | 84.7 | viability, T/C [31]: 96.2%; viability, T/C [12]: 93.8%; viability, T/C [32]: 111%; viability, T/C [16]: 110%; viability, T/C [17]: 99.3%; viability, T/C [18]: 99.7%; viability, T/C [33]: 111%; viability, T/C [22]: 95.4%; viability, T/C [23]: 104%; viability, T/C [24]: 98.2%; viability, T/C [34]: 81.5%; viability, T/C [28]: 87.1%; viability, T/C [29]: 84%; viability, T/C [30]: 84.2%; viability, T/C [35]: 83.9% |
